In patent US8501752B2, “Methods for treating cancer and other pathological proliferating disorders by inhibiting mitosis using pyrrolo[2,3-d]pyrimidines” (Duquesne University of the Holy Ghost, priority 2005, dated 2013):
Like-named read-outs stand apart in the source and are kept apart here.

Legend:
[1] = tested on: SF-539; experiment: NCI IVCLSP growth inhibition (SRB), SF-539; type: cell-based, human; conditions: 48 h drug incubation
Method: (§1) FIG. 1 presents nine compounds that were tested using the National Cancer Institute (NCI) 60 human tumor cell lines. The cells lines, which represent leukemia, melanoma, and cancers of the lung, colon, brain, ovary, breast, prostate, and kidney, are listed in Table 1.
(§2) Compounds 1-9 were tested according to the NCI Developmental Therapeutics Program (DTP) In Vitro Cell Line Screening Project (IVCLSP). […] Methodology for testing under the IVCLSP is as follows: The human tumor cell lines of the cancer screening panel are grown in RPMI 1640 medium containing 5% fetal bovine serum and 2 mM L-glutamine. […]
(§3) Following drug addition, the plates are incubated for an additional 48 h at 37° C., 5% CO2, 95% air, and 100% relative humidity. […] Bound stain is subsequently solubilized with 10 mM trizma base, and the absorbance is read on an automated plate reader at a wavelength of 515 nm. […] Using the seven absorbance measurements [time zero, (Tz), control growth, (C), and test growth in the presence of drug at the five concentration levels (Ti)], the percentage growth is calculated at each of the drug concentrations levels. Percentage growth inhibition is calculated as: [(Ti−Tz)/(C−Tz)]×100 for concentrations for which Ti>/=Tz [(Ti−Tz)/Tz]×100 for concentrations for which Ti<Tz.
(§4) Three dose response parameters are calculated for each experimental agent. […]

[2] = tested on: NCI-H322M; experiment: NCI IVCLSP growth inhibition (SRB), NCI-H322M; type: cell-based, human; conditions: 48 h drug incubation
Method: as §1, §2, §3, §4

[3] = tested on: BT-549; experiment: NCI IVCLSP growth inhibition (SRB), BT-549; type: cell-based, human; conditions: 48 h drug incubation
Method: as §1, §2, §3, §4

[4] = tested on: RXF 393; experiment: NCI IVCLSP growth inhibition (SRB), RXF 393; type: cell-based, human; conditions: 48 h drug incubation
Method: as §1, §2, §3, §4

[5] = tested on: T24, MCF-7, NCI/ADR, MCF-7/VP; experiment: Cytotoxicity, panel of human tumor cell lines of Table 3 (text summaries)
Source text: (§5) These cell lines are resistant to anticancer drugs due to overexpression of the transport proteins P-glycoprotein or MRP1.

[6] = tested on: MOLT-4; experiment: NCI IVCLSP growth inhibition (SRB), MOLT-4; type: cell-based, human; conditions: 48 h drug incubation
Method: as §1, §2, §3, §4

[7] = tested on: NCI/ADR-RES; experiment: NCI IVCLSP growth inhibition (SRB), NCI/ADR-RES; type: cell-based, human; conditions: 48 h drug incubation
Method: as §1, §2, §3, §4

[8] = tested on: MDA-N; experiment: NCI IVCLSP growth inhibition (SRB), MDA-N; type: cell-based, human; conditions: 48 h drug incubation
Method: as §1, §2, §3, §4

[9] = tested on: HT29; experiment: NCI IVCLSP growth inhibition (SRB), HT29; type: cell-based, human; conditions: 48 h drug incubation
Method: as §1, §2, §3, §4

[10] = tested on: CCRF-CEM; experiment: NCI IVCLSP growth inhibition (SRB), CCRF-CEM; type: cell-based, human; conditions: 48 h drug incubation
Method: as §1, §2, §3, §4

[11] = tested on: COLO 205; experiment: NCI IVCLSP growth inhibition (SRB), COLO 205; type: cell-based, human; conditions: 48 h drug incubation
Method: as §1, §2, §3, §4

[12] = tested on: SK-MEL-28; experiment: NCI IVCLSP growth inhibition (SRB), SK-MEL-28; type: cell-based, human; conditions: 48 h drug incubation
Method: as §1, §2, §3, §4

[13] = target: T1, P-glycoprotein (Homo sapiens, UniProt P08183); experiment: P-glycoprotein antagonism: sensitivity of NCI/ADR cells to vinblastine; type: cell-based; conditions: absence or presence of 50 nM vinblastine
T1 construct: NCI/ADR cells that overexpress P-glycoprotein; endogenous in cells; host or cells: NCI/ADR cells
T1 sequence (P08183 whole entry): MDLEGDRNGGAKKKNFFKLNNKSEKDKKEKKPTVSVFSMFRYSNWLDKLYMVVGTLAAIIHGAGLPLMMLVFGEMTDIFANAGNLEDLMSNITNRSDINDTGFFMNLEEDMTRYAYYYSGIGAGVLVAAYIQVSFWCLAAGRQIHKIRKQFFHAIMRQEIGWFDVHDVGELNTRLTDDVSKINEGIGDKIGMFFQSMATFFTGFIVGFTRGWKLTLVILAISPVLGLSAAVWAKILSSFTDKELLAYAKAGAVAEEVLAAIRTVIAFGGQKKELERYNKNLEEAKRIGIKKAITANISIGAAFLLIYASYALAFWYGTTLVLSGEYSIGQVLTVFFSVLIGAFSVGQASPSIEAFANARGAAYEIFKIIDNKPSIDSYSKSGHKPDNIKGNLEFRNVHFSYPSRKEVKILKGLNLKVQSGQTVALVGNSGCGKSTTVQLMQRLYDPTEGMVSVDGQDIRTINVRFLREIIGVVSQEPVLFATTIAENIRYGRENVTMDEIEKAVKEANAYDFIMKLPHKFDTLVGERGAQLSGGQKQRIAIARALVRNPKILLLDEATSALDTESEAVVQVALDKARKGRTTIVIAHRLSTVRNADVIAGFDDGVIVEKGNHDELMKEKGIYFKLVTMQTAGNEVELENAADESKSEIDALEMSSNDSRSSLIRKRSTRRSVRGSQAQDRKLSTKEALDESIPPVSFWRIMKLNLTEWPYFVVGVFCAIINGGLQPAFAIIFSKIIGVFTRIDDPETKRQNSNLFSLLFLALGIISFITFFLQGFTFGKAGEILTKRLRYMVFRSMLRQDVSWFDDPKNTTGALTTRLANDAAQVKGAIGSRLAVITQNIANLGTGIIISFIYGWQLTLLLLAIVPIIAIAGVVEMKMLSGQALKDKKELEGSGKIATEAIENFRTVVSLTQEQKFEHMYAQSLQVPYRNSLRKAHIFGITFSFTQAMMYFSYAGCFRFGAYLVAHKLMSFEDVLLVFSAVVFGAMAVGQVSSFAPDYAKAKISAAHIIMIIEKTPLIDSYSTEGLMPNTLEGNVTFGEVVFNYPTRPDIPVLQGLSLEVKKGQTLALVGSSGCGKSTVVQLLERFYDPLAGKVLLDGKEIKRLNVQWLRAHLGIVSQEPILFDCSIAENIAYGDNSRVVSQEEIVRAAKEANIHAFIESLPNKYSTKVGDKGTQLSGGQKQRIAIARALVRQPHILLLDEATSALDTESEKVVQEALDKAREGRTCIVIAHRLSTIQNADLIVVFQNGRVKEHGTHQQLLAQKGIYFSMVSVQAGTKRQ
Source text: To determine if this is due to inhibition of drug transport activity by these proteins, the effects of these compounds on P-glycoprotein were further characterized. The effects of the compounds on the sensitivity of NCI/ADR cells to vinblastine and of MCF-7/VP cells to vincristine were examined to evaluate antagonism of P-glycoprotein and MRP1, respectively. FIGS. 4a-b present graphs of antagonism score versus concentration for P-glycoprotein and MRP1, respectively.
The Pgp antagonism score is calculated as the percentage survival of cells in the absence of vinblastine/percentage survival in the presence of vinblastine. […] The MRP1 antagonism score is calculated as the percentage survival of cells in the absence of vincristine/percentage survival in the presence of vincristine. […] Concentrations of Compounds 1-5 above their IC50 toward MCF-7 cells are not indicated. Data for one of three similar experiments is shown.

[14] = tested on: SW-620; experiment: NCI IVCLSP growth inhibition (SRB), SW-620; type: cell-based, human; conditions: 48 h drug incubation
Method: as §1, §2, §3, §4

[15] = tested on: U251; experiment: NCI IVCLSP growth inhibition (SRB), U251; type: cell-based, human; conditions: 48 h drug incubation
Method: as §1, §2, §3, §4

[16] = tested on: MCF-7 cells; experiment: Cytotoxicity, drug-sensitive MCF-7 cells; conditions: mean ± SEM for 3 experiments
Source text: as §5

[17] = tested on: SK-MEL-2; experiment: NCI IVCLSP growth inhibition (SRB), SK-MEL-2; type: cell-based, human; conditions: 48 h drug incubation
Method: as §1, §2, §3, §4

Question: Which GI50 [1] does the source give for `COc1cc(CCc2cn(Cc3ccccc3)c3nc(N)nc(C)c23)cc(OC)c1OC` [Compound 1] here?
Answer: The GI50 was 0.0745 µM.

Question: What about the GI50 [2] of the same compound?
Answer: The GI50 was 0.581 µM.

Question: What about the GI50 [3] of the same compound?
Answer: The GI50 was greater than 1 µM.

Question: And the GI50 [4]?
Answer: Its GI50 is 0.134 µM.

Question: What about the “cytotoxic potency, better than Compound 4 (2-OMe)” value [5] of the same compound?
Answer: The value was 10 fold.

Question: What about the “effect of P-glycoprotein / MRP1 overexpression on cell sensitivity (in words)” value [5] of the same compound?
Answer: Its value is “neither P-glycoprotein nor MRP1 affect cell sensitivity”.

Question: What about the “cytotoxic potency (in words)” value ([5]; all tested cell lines) of the same compound?
Answer: Its value is “Submicromolar cytotoxic potency”.

Question: And the GI50 [6]?
Answer: The GI50 was 0.285 µM.

Question: And the GI50 [7]?
Answer: Its GI50 is 0.145 µM.

Question: What about the GI50 [8] of the same compound?
Answer: The GI50 was less than 0.01 µM.

Question: And the GI50 [9]?
Answer: The GI50 was 0.281 µM.

Question: What about the GI50 [10] of the same compound?
Answer: The GI50 was 0.058 µM.

Question: What about the GI50 [11] of the same compound?
Answer: The GI50 was 0.19 µM.

Question: What about the GI50 [12] of the same compound?
Answer: Its GI50 is greater than 1 µM.

Question: And the “effect on P-glycoprotein-mediated resistance (in words)” value [13]?
Answer: Its value is “no affect on P-glycoprotein at doses below its IC50”.

Question: And the GI50 [14]?
Answer: The GI50 was 0.236 µM.

Question: And the GI50 [15]?
Answer: Its GI50 is 0.144 µM.

Question: What about the IC50 ([16]; read-out: Cytotoxicity IC50, MCF-7) of the same compound?
Answer: Its IC50 is 0.3 ± 0.16 µM.

Question: And the IC50 ([16]; read-out: drug sensitivity (IC50), MCF-7, Table 4)?
Answer: The IC50 was 0.28 ± 0.01 µM.

Question: And the GI50 [17]?
Answer: Its GI50 is 0.381 µM.
